Source: patent US20220153780A1, “SALT FORMS OF S-(N, N-DIETHYLCARBAMOYL)GLUTATHIONE” (Tonix Pharma Holdings Limited, priority 2019, published 2022)
≈ marks a conversion by molar mass, not a printed value. Like-named read-outs stand apart in the source and are kept apart here.

How the values were obtained:
ALDH2 = conditions: Faiman et al., 2013; cited from earlier work
[1] = Visual solubility of free carbamathione in water and common organic solvents; format: physicochemical
Experimental: Initially, the solubility of free carbamathione was evaluated in water and in common organic solvents. The common organic solvents tested included dichloromethane (DCM), methanol, ethyl acetate, ethanol, acetonitrile, acetone, 2-propanol, and N,N-dimethylformamide.
For each solvent the solubility of carbamathione was assessed by weighing out 50 mg of carbamathione into a stoppered tube followed by the addition of 0.05 mL of the test solvent to the tube. The mixture underwent vigorous shaking for 1 minute, and was placed in a constant temperature device for 15 minutes at 25.0±0.5° C. If the carbamathione was not completely dissolved, vigorous shaking was repeated for 1 minute and then placed in a constant temperature device for an additional 15 minutes. If the carbamathione was not fully dissolved, additional solvent was added portion-wise until dissolution of carbamathione was observed. If complete dissolution was not observed, the solution was heated until the boiling point under stirring to verify the solubility at high temperature. The solvents were classified according to the visual solubility determined into the groups described in Table 6.

[2] = Solubility of free carbamathione in buffer by portion-wise addition of solid; format: physicochemical; conditions: thermodynamic from solid, read-out: Solubility TNX1001
Experimental: The solubility of free carbamathione was determined to be between 20 and 30 mg/mL, as 100 mg of free carbamathione dissolved completely in 5 mL of buffer, but a saturated solution was formed when a subsequent 50 mg aliquot of solid was added to the solution.
The solubility of free carbamathione was determined to be between 10 and 20 mg/mL, as 50 mg of free carbamathione dissolved completely in 5 mL of buffer, but a saturated solution was formed when a subsequent 50 mg aliquot of solid was added to the solution.

[3] = tested on: nucleus accumbens (NAc) and prefrontal cortex (PFC); conditions: intravenous administration, rats, Faiman et al., 2013; cited from earlier work
[4] = tested on: high alcohol-drinking-1 (HAD1) rats; assay: 2-hour ethanol intake by adult male HAD1 rats after IP carbamathione; format: in vivo; conditions: IP 100, 200, 400 mg/kg, saline with 0.25% Tween 80 vehicle
Experimental: (§1) The efficacy of carbamathione in reducing ethanol intake of rats was assessed. Adult male alcohol-preferring rats (P rats) and high alcohol-drinking-1 (HAD1) rats (˜75 days of age at the start) were used in this study. These rats underwent an 8-week acquisition/acclimation period of concurrent free-choice access to 15% and 30% ethanol. Animals were initiated with 24-hour access, which was titrated down to 2 hours per day for 5 days (Monday-Friday)/week access. Ethanol access began at the beginning of the dark cycle (10:00 h) in a room maintained on a reverse dark-light cycle (10:00 h to 22:00 h lights out).
(§2) After the acquisition period, the animals underwent three weeks of testing. Four doses were tested: 0, 100, 200, and 400 mg/kg/day. Sterile isotonic (0.9% normal) saline with 0.25% Tween® 80 was used as the vehicle for all doses. Injection solutions were prepared approximately 1 hour prior to each administration.
(§3) The carbamathione solution was maintained at −20° C. until mixing the solutions each day. Adding the carboxyl-associated compound helped dissolve the carbamathione solid, which was pulverized by mortar and pestle with 50 μl Tween® 80, resulting in a pH of 3.5. […] Doses were calculated at 3 ml/kg to allow for injection volume of 1.5 ml per 500 g rat. […]
(§4) Data were analyzed by Dose, by Test Day, and 2-way mixed ANOVAs on each rat line, followed by Dunnett t-test planned comparisons.

[5] = tested on: alcohol-preferring rats (P rats); assay: 2-hour ethanol intake by adult male P rats after IP carbamathione; format: in vivo
Experimental: as §1, §2, §3, §4

Solubility at HT ([1]; 2-Propanol, heated until the boiling point): No
Solubility at HT ([1]; Acetone, heated until the boiling point): No
Solubility at HT ([1]; Acetonitrile, heated until the boiling point): No
Solubility at HT ([1]; Dichloromethane, heated until the boiling point): No
Solubility at HT ([1]; Ethanol, heated until the boiling point): No
Solubility at HT ([1]; Ethyl Acetate, heated until the boiling point): No
Solubility at HT ([1]; Methanol, heated until the boiling point): No
Solubility at HT ([1]; N,N-Dimethylformamide, heated until the boiling point): No
Solubility at HT ([1]; Tetrahydrofuran, heated until the boiling point): No
Solubility at HT ([1]; Water, heated until the boiling point (100° C.)): Dissolved
solubility in water ([1]; only at high temperature): sparingly soluble
solubility in all of the common organic solvents ([1]; visual solubility): very slightly soluble
solubility ([2]; aqueous buffer, pH 4.5, 25° C.): 10 to 20 mg/mL (≈ 24.6 to 49.2 mM)
solubility ([2]; aqueous buffer, pH 6.8, 25° C.): 20 to 30 mg/mL (≈ 49.2 to 73.8 mM)
solubility ([2]; simulated gastric fluid, pH 1.2, 25° C.): 25 to 33 mg/mL (≈ 61.5 to 81.2 mM)
SMILES: CCN(CC)C(=O)SCC(NC(=O)CCC(N)C(=O)O)C(=O)NCC(=O)O (stereo not shown) [carbamathione, S—(N,N-diethylcarbamoyl)glutathione]
inhibitory activity of ALDH2 (ALDH2): devoid of inhibitory activity
GABA [3]: decreases
dopamine (DA) [3]: increases
glutamate (Glu) [3]: biphasic effect
effect on 2-hour ethanol intake [4]: no effect
effect on 2-hour ethanol intake ([5]; IP 100, 200, 400 mg/kg, saline with 0.25% Tween 80 vehicle): modest positive effect
2 h ethanol intake, Dunnett's t-test for main effect of dose ([5]; highest dose (400 mg/kg/day IP)): significant effect
